The text below walks through data of patent publication US20180021456A1, “SELF-ASSEMBLED TARGETED INCLUSION COMPLEXES FOR DRUG DELIVERY” (UNIVERSITY OF SOUTH FLORIDA, priority 2015, published 2018).

By inhibition is commonly meant the change of the read-out against control, counted positive when it falls. A low value points to little suppression.

Experiment [1] deals with extracellular signal-regulated kinases 1 and 2 (ERK1 and ERK2). In words: Rapid phosphorylation of ERK1 and ERK2 (MAPK) after treatment. In kind it is cell-based. The note with it: treatment at 1 μM.
Excerpt: Western Blot: In all cases, unless otherwise indicated, the western blots were visualized by Bio-Rad digital imaging system and analyzed by Quantity One 1-D analyzing software.
The next experiment concerns MCF-7 cells. In words: Competition assay of estrone and tamoxifen with CDE1-Ada-DOX uptake in MCF-7 cells (flow cytometry). Particulars: CDE1-Ada-DOX 2 μM. In kind it is cell-based, human. How it is done:
FIG. 17 is a bar graph of the fluorescence intensity for competition assay of CDE1-Ada-DOX at 2 μM in MCF-7 cells in the presence of estrone and tamoxifen at 0.1-10 μM. The results are represented as means±SD from triplicate determinations.
Flow cytometer: In all cases, unless otherwise indicated, the flow cytometric analysis was performed on a FACS (Becton Dickinson Immunocytometry Systems, San Jose, Calif.) by counting 10,000 events.
Moreover, the competition assay of estrone and tamoxifen with CDE1-Ada-DOX in MCF-7 cells was conducted and is shown in FIG. 17. […] Moreover, the ER antagonist-tamoxifen, which is the most prescribed medicine to treat hormone receptor-positive breast cancer, is capable of binding to the estrogen receptor but blocks its activity. […] While for both estrone and tamoxifen, inhibition saturated at concentrations higher than 5 μM. […] Addition of an Ada-DOX guest led to the decomplexation of the estrogen moiety. […] The results are consistent and replicable with the TEM/SEM observations.
In general terms: Flow cytometry measures light scatter and fluorescence of single cells or particles in a stream.

`C[C@]12CC[C@@H]3c4ccc(O)cc4CC[C@H]3[C@@H]1CC[C@@H]2O` [E2, 17β-estradiol]: the “time of maximum MAPK phosphorylation” value in experiment [1] was determined as 10 min.

For the compound `CC/C(=C(\c1ccccc1)c1ccc(OCCN(C)C)cc1)c1ccccc1` [tamoxifen], in the experiment with MCF-7 cells (Homo sapiens, MCF7, competitor at 5 μM), the inhibition at 5 µM stood at 80%. Besides, the “inhibition of CDE1-Ada-DOX uptake” value in the experiment with MCF-7 cells (competitor at 1 μM and above (p<0.001)) is reported as “significantly inhibited”.
